Assay results reported in patent US10221190B2, “Biguanide compounds and use thereof” (IMMUNOMET THERAPEUTICS INC., priority 2013, dated 2019).

Experiments:
SK-MEL-28 cells = assay: Inhibitory activity against cancer cells (MTT cell viability), SK-MEL-28; type: cell-based; settings: Homo sapiens, SK-MEL-28, 48 hr incubation
Procedure: (§1) The inhibitory activities of biguanide derivatives against cancer cells were evaluated in the cell line SK-MEL-28 derived from human Melanoma cell, Miapaka-2 cell line derived from human pancreatic cancer cell and HCT116 cell line derived from human colorectal cancer cell by measuring the concentration that inhibits 50% of the growth of the cell lines (the half maximal inhibitory concentration, IC50).
(§2) Firstly, SK-MEL-28 cells were grown to be density of 5,000 cells/well in RPMI-1640 media supplemented with 10% (v/v) bovine calf serum, on 96-well plates for 16 hr. To measure the IC50 of each compound, the cells were incubated for 48 hr with the 100 mM PBS stock compounds at an amount of 10 mM, 1 mM, 200 uM, 40 uM, 8 uM, 1.6 uM, 0.32 uM or 0.064 uM; 50 mM PBS and EtOH stock compounds at an amount of 1 mM, 200 uM, 40 uM, 8 uM, 1.6 uM, 0.32 uM and 0.064 uM; and 50 mM DMSO stock compounds at an amount of 100 uM, 25 uM, 6.25 uM, 1.56 uM, 0.39 uM, 0.10 uM and 0.02 uM, respectively. To test the viable cells after incubation with each compound, the cell cultures were incubated additionally for 2 hr in the presence of MTT. The produced formazan crystals were dissolved with dimethyl sulfoxide and then measured by detecting the absorbance at 560 nm.
(§3) After the 48 hr incubation, the viable cells were counted on the well plates treated with the compounds of the Examples relative to the count of the viable cells on the non-treated plates, and then was represented as the cell viability (%). By using the cell viability (%) result, the cell viability curve was plotted, and IC50 was calculated from the curve to evaluate the inhibitory activity against cancer cells.

Miapaca-2 cell = assay: Inhibitory activity against cancer cells (MTT cell viability), Miapaca-2; type: cell-based; settings: Homo sapiens, MIA PaCa-2, Miapaca-2, 48 hr incubation
Procedure: as §1, §2, §3
(§4) The inhibitory activities of biguanide derivatives against cancer cells of Miapaca-2 cell and HCT116 cell were evaluated according to the substantially same method as described in SK-MEL-28 cell, except that DMEM media supplemented with 10% (v/v) bovine calf serum was used instead of RPMI-1640 media supplemented with 10% (v/v) bovine calf serum for SK-MEL-28 cell.

HCT116 cell = assay: Inhibitory activity against cancer cells (MTT cell viability), HCT116; type: cell-based, human; settings: HCT 116, 48 hr incubation
Procedure: as §1, §2, §3, §4

[1] = tested on: lung cancer cell line A549; assay: Inhibitory activity on Oxygen Consumption Rate (OCR); type: cell-based; settings: A549, 3 hrs, 10 uM compound; phenformin set to 100%, untreated control set to 0%
Procedure: The cellular metabolic activity of the compounds on Oxygen Consumption Rate (OCR) was evaluated, because the biguanide drugs have anticancer activity by inhibiting the oxidative phosphorylation of cancer cell.
A549 cells were inoculated at 5×10^3 cells in RPMI1640 media on XF96 cell culture plate and cultured for 24 h (temp; 37° C., 5% CO2) to make the cell adhere to the plate.
After 24 hr, A549 cells were treated by 10 μM of the compounds or phenformin, and were washed with XF analysis media using Prep station to remove the original media. A549 cells were retreated by compounds or phenformin and incubated for 1 hr (temp; 37° C., Non-CO2) in Prep station. While incubation in Prep station, sensor cartridge was calibrated for 1 hr. Then, the calibrated sensor cartridge was inserted to the cell plate to analyze OCR.
When OCR of phenformin as a reference drug was set to 100% and OCR of untreated control was set to 0%, the OCR of tested compounds was calculated by converting the measured OCR to be the relative percentage value (%).

Row | Compound | IC50 (SK-MEL-28 cells) [µM] | IC50 (Miapaca-2 cell) [µM] | IC50 (HCT116 cell; Homo sapiens) [µM] | OCR inhibition relative to phenformin (%) [1] [%] | IC50 (HCT116 cell) [µM]
1 | N=C(NCc1ccc2c(c1)OCO2)NC(=N)N1CCCC1 [Example 1, N1-pyrrolidine-N5-(benzo[1,3]dioxol-5-ylmethyl) biguanide] | 107 | 36.2 | > 100 | – | –
2 | CC(C)c1ccc(NC(=N)NC(=N)N2CCCC2)cc1.Cl [Example 6, N1-pyrrolidine-N5-(4-isopropyl)phenyl biguanide] | – | – | 28.6 | 44 | –
3 | N=C(NC(=N)N1CCCC1)Nc1ccc2c(c1)CCCC2 [Example 14, N1-pyrrolidine-N5-(5,6,7,8-tetrahydronaphthalene-2-yl) biguanide] | 29.5 | 26.6 | > 100 | – | –
4 | C[C@H]1CCCN1C(=N)NC(=N)Nc1ccc(OC(F)(F)F)cc1.Cl [Example 16] | – | – | 39.8 | 13 | –
5 | N=C(NC(=N)N1CC[C@H](O)C1)Nc1ccc(OC(F)(F)F)cc1 [Example 17, N1-(S)-3-hydroxy pyrrolidine-N5-(4-trifluoromethoxy)phenyl biguanide] | 184 | 113 | > 100 | – | –
6 | Cl.N=C(NC(=N)N1CCC(O)CC1)Nc1ccc(OC(F)(F)F)cc1 [Example 18, N1-4-hydroxy piperidine-N5-(4-trifluoromethoxy)phenyl biguanide] | 182 | 47.9 | > 100 | 57 | –
7 | Cl.N=C(NC(=N)N1CCC(CO)C1)Nc1ccc(OC(F)(F)F)cc1 (centres unmarked) [Example 20, N1-3-hydroxy methyl pyrrolidine-N5-(4-trifluoromethoxy)phenyl biguanide] | 134 | 58.6 | > 100 | 15 | –
8 | Cl.N=C(NC(=N)N1CCC(O)CC1)Nc1cccc(Oc2ccccc2)c1 [Example 22, N1-4-hydroxy piperidine-N5-(3-phenoxy)phenyl biguanide] | – | 106 | – | 74 | –
9 | N=C(NC(=N)N1CCCC1)Nc1ccc(C(N)=O)cc1 [Example 23, N1-pyrrolidine-N5-4-benzamide biguanide] | > 1000 | 2340 | > 100 | – | –
10 | N=C(NC(=N)N1CCCC1)Nc1ccc(/C=C/C(=O)N2CCCCC2)cc1 [Example 24, (E)-N—(N-(4-(3-oxo-3-(piperidin-1-yl)prop-1-enyl)phenyl)carbamimidoyl)pyrrolidine-1-carboximidamide] | > 100 | > 100 | > 100 | – | –
11 | N=C(NC(=N)N1CCCC1)Nc1ccc(SCC(=O)N2CCCCC2)cc1 [Example 28, N—(N-(4-(2-oxo-2-(piperidin-1-yl)ethylthio)phenyl)carbamimidoyl)pyrrolidine-1-carboximidamide] | 176 | 209 | > 100 | – | –
12 | CN1CCN(C(=N)NC(=N)Nc2ccc(F)c(OC(F)(F)F)c2)CC1.Cl [Example 40, N1-4-methyl piperazine-N5-(4-fluoro-3-trifluoromethoxy)phenyl biguanide] | – | – | 35.2 | 42.9 | –
13 | CS(=O)(=O)C1CCN(C(=N)NC(=N)Nc2ccc(OC(F)(F)F)cc2)CC1 [Example 53, N1-4-(methylsulfonyl)piperidine-N5-(4-trifluoromethoxy)phenyl biguanide] | > 100 | > 100 | 182 | – | –
14 | N=C(NC(=N)N1CCCC1)Nc1ccc(CNC(=O)c2ccccc2-c2c3ccc(=O)cc-3oc3cc(O)ccc23)cc1 [Example 83, 2-(6-hydroxy-3-oxo-3H-xanthen-9-yl)-N-(4-(3-(imino(pyrrolidin-1-yl)methyl)guanidino)benzyl)benzamide] | – | – | 56.8 | – | –
15 | C[C@@H]1CCC[C@H](C)N1C(=N)NC(=N)Nc1ccc(CNC(=O)c2ccccc2-c2c3ccc(=O)cc-3oc3cc(O)ccc23)cc1 [Example 84, N-(4-(3-(((2R,6S)-2,6-dimethylpiperidin-1-yl)(imino)methyl)guanidino)benzyl)-2-(6-hydroxy-3-oxo-3H-xanthen-9-yl)benzamide] | – | – | 27.4 | – | –
16 | CC1CC(C)CN(C(=N)NC(=N)Nc2ccc(CNC(=O)c3ccccc3-c3c4ccc(=O)cc-4oc4cc(O)ccc34)cc2)C1 (centres unmarked) [Example 85, N-(4-(3-((3,5-dimethylpiperidin-1-yl)(imino)methyl)guanidino)benzyl)-2-(6-hydroxy-3-oxo-3H-xanthen-9-yl)benzamide] | – | – | 28.8 | – | –
17 | CC1CCCN(C(=N)NC(=N)Nc2ccc(CNC(=O)c3ccccc3-c3c4ccc(=O)cc-4oc4cc(O)ccc34)cc2)C1 (centres unmarked) [Example 86, 2-(6-hydroxy-3-oxo-3H-xanthene-9-yl)-N-(4-(3-(imino(3-methylpiperidine-1-yl)methyl)guanidino)benzyl)benzamide] | – | – | 53.2 | – | –
18 | N=C(NC(=N)N1CCc2ccccc2C1)Nc1ccc(OC(F)(F)F)cc1 [Example 87, N—(N-(4-(trifluoromethoxy)phenyl)carbamimidoyl)-3,4-dihydroisoquinolin-2(1H)-carboximidamide] | – | – | 2.57 | – | –
19 | N=C(NC(=N)N1CCc2ccccc21)Nc1ccc(OC(F)(F)F)cc1 [Example 88, N—(N-(4-(trifluoromethoxy)phenyl)carbamimidoyl)indoline-1-carboximidamide] | – | – | 7.42 | – | –
20 | N1-3-phenoxyphenyl-N5-(4-trifluoromethoxy)phenyl biguanide [Example 76] | – | – | – | – | 3.12

More lines, main results first:

Row | IC50 (SK-MEL-28 cells) [µM] | IC50 (Miapaca-2 cell) [µM] | IC50 (HCT116 cell; Homo sapiens) [µM] | Compound | OCR inhibition relative to phenformin (%) [1] [%] | IC50 (HCT116 cell) [µM]
21 | – | – | 59.5 | Cl.N=C(NC(=N)N1CCc2ccccc2C1)N1CCCC1 [Example 89, N-(imino(pyrrolidin-1-yl)methyl)-3,4-dihydroisoquinoline-2(1H)-carboximidamide] | 44 | –
22 | – | – | 27.7 | N=C(NC(=N)N1CCc2ccccc21)Nc1ccc(Oc2ccccc2)cc1 [Example 90, N—(N-(4-phenoxyphenyl)carbamimidoyl)indoline-1-carboximidamide] | – | –
23 | – | – | 11 | N=C(NC(=N)N1CCc2ccccc21)Nc1cccc(Oc2ccccc2)c1 [Example 91, N—(N-(3-phenoxyphenyl)carbamimidoyl)indoline-1-carboximidamide] | – | –
24 | – | – | > 100 | N=C(Nc1nc2cc(OC(F)(F)F)ccc2[nH]1)N1CCCC1 [Example 92, N-(5-(trifluoromethoxy)-1H-benzo[d]imidazol-2-yl)pyrrolidine-1-carboximidamide] | – | –
25 | – | – | > 100 | N=C(Nc1nc2cc(F)ccc2[nH]1)N1CCCC1 [Example 93, N-(5-fluoro-1H-benzo[d]imidazol-2-yl)pyrrolidine-1-carboximidamide] | – | –
26 | – | – | > 100 | Cc1ccc2[nH]c(NC(=N)N3CCCC3)nc2c1 [Example 94, N-(5-methyl-1H-benzo[d]imidazol-2-yl)pyrrolidine-1-carboximidamide] | – | –
27 | – | – | > 100 | COc1ccc2[nH]c(NC(=N)N3CCCC3)nc2c1 [Example 95, N-(5-methoxy-1H-benzo[d]imidazol-2-yl)pyrrolidine-1-carboximidamide] | – | –
28 | – | – | > 100 | N=C(Nc1nc2ccccc2[nH]1)N1CCCC1 [Example 96, N-(1H-benzo[d]imidazol-2-yl)pyrrolidine-1-carboximidamide] | – | –
29 | 266 | 119 | 12.5 | [H]/N=C(/N)N/C(=N/[H])NCCc1ccccc1 [Phenformin, phenformin, reference compound] | – | –
